# Results as given in paper PMC10817170, “Effect of an NHE3 inhibitor in combination with an NPT2b inhibitor on gastrointestinal phosphate absorption in Rodent models” (PLOS ONE, 2024).
# pIC50: −log10 of the molar value.
# How the values were obtained:
# [1] = test system: acute phosphate uptake into plasma; experiment: Acute radiolabeled phosphate uptake into plasma in mice; assay type: in vivo
# Procedure: A dosing solution for a 10 mg/kg dose of LY3304000 using a 10 mL/kg dosing volume was made in 1% HEC vehicle. The subsequent dosing solutions for 3, 1, 0.3, 0.1, 0.03, 0.01, 0.003, and 0.001 mg/kg were prepared by serial dilutions with HEC. A Radiolabeled Phosphate Dosing Solution was made in a 16.25 mM Na2HPO4, 0.9% saline, pH 7.4, solution with the addition of about 2.5 μCi/mL radioactive phosphate (H3^33PO4, PerkinElmer) and filtered before dosing. Following 12-hour fasting with access to water, male SD rats were orally dosed at 10 mL/kg with either vehicle or varying doses of LY3304000. Fifteen minutes later, 2 mL of the Radiolabeled Phosphate Dosing Solution was dosed by oral gavage. This dose of phosphate was chosen because it approximates the rat equivalent to the amount of bioavailable phosphate in a human meal, 4 mg/kg phosphorus, or 320 mg phosphorus for an 80 kg person on a phosphate restricted diet. Fifteen minutes later, blood was collected by cardiac stick, and plasma was prepared. Radioactivity (dpm) in 50 μL plasma was measured by scintillation counting. To determine the total radioactivity dosed to each rat, the radioactivity in two 10-μL samples of the Radiolabeled Phosphate Dosing Solution was measured by scintillation counting. To calculate the total radioactivity recovered in plasma, it was assumed that total blood volume constitutes about 60% of the body weight and plasma constitutes about 55% of the total blood. The mole amount of phosphate uptake was calculated as the percentage of administered radiolabeled phosphate recovered in the plasma of vehicle or LY3304000 treated rats multiplied by total phosphate amount in the radiolabeled phosphate dosing solution. ED50 values were then determined with a 4-parameter logistic curve fitting model using GraphPad Prism. A 15-minute time point, post phosphate dosing, was chosen for collecting blood in the acute phosphate uptake studies in rats and mice (see below) to capture the initial rate of phosphate absorption. We wanted to avoid measurements at longer time points when plasma radiolabeled phosphate appears to be at a steady state. LY3304000 dosing solution and Radioactive Phosphate Dosing Solution were made as described above. Following 12-hour fasting with access to water, male C57Bl/6 mice were dosed orally at 10 mL/kg with either vehicle or varying doses of LY3304000. Fifteen minutes later, 200 μL of the Radiolabeled Phosphate Dosing Solution was dosed by oral gavage. Fifteen minutes later, blood was collected by cardiac stick, and plasma was prepared. The measurement of acute phosphate uptake was determined as described above for rats.
# [2] = test system: acute phosphate uptake into plasma; experiment: Acute phosphate uptake in rats, LY3304000 with fixed 1.2 mg/kg LY3358966; assay type: in vivo
# Procedure: NHE3 inhibitor LY3304000 and NPT2b inhibitor LY3358966 SDD were used in combination to assess their effect on phosphate absorption in rats. To make the LY3358966 dosing solution, an appropriate amount of LY3358966 SDD was weighed for a 1.2 mg/kg API dosing solution with 10 mL/kg dosing volume and dissolved in water. To make the LY3304000 dosing solution, an appropriate amount of LY3304000 was weighed for a 10 mg/kg dose with 10 mL/kg dosing volume and dissolved in 1% HEC vehicle. The subsequent dosing solutions for 3, 1, 0.3, 0.1, 0.03, 0.01, 0.003, and 0.001 mg/kg LY3304000 were prepared by serial dilutions with 1% HEC. Following 12-hour fasting, male SD rats were orally dosed at 10 mL/kg with 1% HEC vehicle, 1.2 mg/kg LY3358966 or increasing doses of LY3304000 with a fixed, 1.2 mg/kg dose of LY3358966. In the vehicle group, the animals were dosed first with 1% HEC immediately followed by water. In the LY3358966 alone group, the animals were first dosed with 1% HEC immediately followed by LY3358966. In the combination groups, the animals were dosed first with LY3304000 immediately followed by LY3358966. Fifteen minutes later, 2 mL Radiolabeled Phosphate Dosing Solution was orally dosed. Fifteen minutes later, blood was collected by cardiac stick, and plasma was prepared. Radioactivity (dpm) in 50-μL plasma was measured by scintillation counting. To measure the total radioactivity dosed to each rat, the radioactivity in two 10-μL samples of the Radiolabeled Phosphate Dosing Solutions was measured by scintillation counting. The mole amount of phosphate uptake was calculated as described above to determine acute phosphate uptake.
# Human SGLT1 = target: T1, Human SGLT1 (Homo sapiens, UniProt P13866); experiment: SGLT1 activity assay (14C-alpha-methyl-D-glucopyranoside uptake in CHO cells); assay type: cell-based; details: geometric mean, n=4
# T1 construct: expressed in transfected cells; host or cells: CHO cells, constitutive expression
# T1 sequence (P13866 1-664): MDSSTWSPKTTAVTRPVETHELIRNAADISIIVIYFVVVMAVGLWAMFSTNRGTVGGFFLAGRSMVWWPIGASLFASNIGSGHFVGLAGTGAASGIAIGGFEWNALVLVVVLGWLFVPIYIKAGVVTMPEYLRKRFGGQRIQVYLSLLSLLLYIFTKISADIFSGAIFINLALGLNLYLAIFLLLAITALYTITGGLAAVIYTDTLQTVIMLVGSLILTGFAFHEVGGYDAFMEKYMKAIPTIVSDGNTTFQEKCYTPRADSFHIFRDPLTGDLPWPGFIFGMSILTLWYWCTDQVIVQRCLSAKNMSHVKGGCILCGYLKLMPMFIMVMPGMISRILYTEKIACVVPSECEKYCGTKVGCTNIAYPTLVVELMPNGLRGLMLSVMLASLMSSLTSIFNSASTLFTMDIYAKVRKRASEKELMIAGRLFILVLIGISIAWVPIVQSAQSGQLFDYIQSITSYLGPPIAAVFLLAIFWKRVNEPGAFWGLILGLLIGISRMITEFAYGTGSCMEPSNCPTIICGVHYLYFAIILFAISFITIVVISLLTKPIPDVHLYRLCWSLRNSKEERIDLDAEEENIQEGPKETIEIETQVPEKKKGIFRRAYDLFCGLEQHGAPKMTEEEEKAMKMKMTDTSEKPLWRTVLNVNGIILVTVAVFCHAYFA
# Procedure: Generation of constitutive human Pit-2 and SGLT1 overexpressing CHO cells and activity assays measuring the uptake of ^33P phosphate for 45 minutes at 20°C for Pit-2 and ^14C-α-methyl-D-glucopyranoside for 120 minutes at 37°C for SGLT1, were also described previously.
structure (smiles),measurement,setting,value
"CN1Cc2c(Cl)cc(Cl)cc2[C@H](c2cccc(S(=O)(=O)NCCOCCOCCN/C(=N\C(N)=O)NCCCCN/C(=N/C(N)=O)NCCOCCOCCNS(=O)(=O)c3cccc([C@@H]4CN(C)Cc5c(Cl)cc(Cl)cc54)c3)c2)C1.Cl.Cl [LY3304000, (Z)-[[4-[[(Z)-N’-carbamoyl-N-[2-[2-[2-[[3-[(4S)-6,8-dichloro-2-methyl-3,4-dihydro-1H-isoquinolin-4-yl]phenyl]sulfonylamino]ethoxy]ethoxy]ethyl]carbamimidoyl]amino]butylamino]-[2-[2-[2-[[3-[(4S)-6,8-dichloro-2-methyl-3,4-dihydro-1H-isoquinolin-4-yl]phenyl]sulfonylamino]ethoxy]ethoxy]ethylamino]methylene]urea dihydrochloride]",ED50,"[1]; Mus musculus, po, 0.25 h, oral, plasma 15 min post 33P phosphate, read-out: ED50 (increase of phosphate uptake)",0.48 mg/kg
same,"Emax, Pi uptake",[1]; curve fit,80.01 nmol
same,radiolabeled phosphate recovered in plasma,"[1]; highest doses tested, vehicle 39 nmoles",78 nmol
same,ED50 (increase of phosphate uptake),"[1]; oral, plasma 15 min post 33P phosphate",0.479 mg/kg
same,"acute phosphate uptake, % of vehicle control",[2]; highest dose of LY3304000 plus 1.2 mg/kg LY3358966,30%
same,acute phosphate uptake into plasma,"[2]; highest dose of LY3304000 tested plus 1.2 mg/kg LY3358966, vehicle 710 nmoles",212 nmol
same,pIC50,Human SGLT1,5.18
